Laboratory results as given in patent US11697669B2, “Hemi-citrate salts of GABA-A positive allosteric modulator and crystalline form thereof” (priority 2021, dated 2023).
Counter-ions that a name gives are not always drawn. Like-named read-outs stand apart in the source and are kept apart here.

Key:
Assay type in all cases: physicochemical
[1] = Gelation experiments in aqueous media; details: for gelation during tablet dissolution experiments: certain conditions
Experimental: To confirm these findings, controlled experiments were conducted where the free base, mono-citrate, and hemi-citrate salts of Compound 1 were dissolved in aqueous media at concentrations between 0.5 mg/mL and 10 mg/mL. The dissolution experiments were performed in either 0.1 N HCl, water, or pH 7.4 buffer as aqueous media.

[2] = Heckel analysis on compaction simulator (yield pressure, strain rate sensitivity, crushing strength); details: for yield pressure, fast press speed: punch speed 300 mm/s; for yield pressure, slow speed: punch speed 0.1 mm/s
Experimental: The aim of the Heckel test is to compress the material under controlled conditions to derive the yield pressure of the bulk material. A known weight of material is compressed within a 10 mm diameter die with flat faced punches moving at a set speed. The force on the punch is accurately measured at frequent intervals whilst the displacement of the punches is used to calculate the volume of the powder. The yield pressure is calculated at slow and fast punch speeds to assess the time-dependent component to deformation of the material.
A known weight of pure drug is compacted to theoretical zero porosity using 10 mm diameter flat faced punches. The Compaction Simulator was used under the following conditions:
During compression the location of the punch tips are accurately determined, and the force measured by load cells producing a record of the primary compression parameters. Temperature and humidity were monitored at intervals during the test.
The data were analyzed by the Compaction Analysis software program to generate values for yield pressure (Py) using the Heckel equation:
[formula] where D=the relative density of the compact; • P=Pressure applied; and • K=Gradient of the line in the linear region; [Reference: R. W. Heckel. Trans. Metall. Soc. AIME 221 (1961)1001-1008].
For some materials, the deformation characteristics change with rate of applied force. This can be estimated by calculating the Strain Rate Sensitivity. The yield pressure at high speed compression is compared to that at slow speed using the following equation:
[formula] [Reference: R. J. Roberts and R. C. Roe, Chem. Eng. Sci. 42(1987) p 903]. Results

[3] = Tablet stability: C17 epimer in sealed bottles stored at 40° C./75% RH; details: tablet dosage form, sealed bottle, 1 or 2 months, versus mono-citrate salt
Experimental: FIG. 12 is a graph comparing the amount of the C17 epimer, a degradation product of Compound 1, over time for a tablet formulation containing Compound 1 hemi-citrate salt (Form I; left column in both “1 month” and “2 months”) or Compound 1 mono-citrate salt (Form A; right column in both “1 month” and “2 months”) in sealed bottles stored at 40° C./75% RH).

[4] = Tablet dissolution: percent release of Compound 1 from acidified tablet formulation
Experimental: FIG. 13 is a graph showing percent release of Compound 1 over time for an acidified tablet formulation containing Compound 1 hemi-citrate salt Form I. Tablets were used initially or maintained at 40° C./75% RH for 2 weeks, 1 month, or 2 months.
FIG. 14 is a graph showing percent release of Compound 1 over time for an acidified tablet formulation containing Compound 1 mono-citrate salt (Form A). Tablets were used initially or stored at 40° C./75% RH for 2 weeks, 1 month, or 2 months.

[5] = Dynamic vapor sorption (DVS) at room temperature and 40° C.
Experimental: DVS was measured via a SMS (Surface Measurement System) DVS Intrinsic. Parameters for DVS data collection were as follows:
A second endotherm (having an onset at 121.5° C.) associated with melting of the dehydrated phase (ΔH: 15.20 J/g) was followed by a rapid decomposition as temperature continued to increase (FIG. 3). Because of the low onset of dehydration, the DVS was measured at both room temperature and at 40° C. to predict the stability of the crystalline phase at 40° C. […] A 1.5% weight loss was observed between 95% and 20% RH, and a 2.9% weight loss was observed between 20% and 0% RH, for a total loss of […] across the entire cycle. […] After measuring the hygroscopicity by DVS, an XRPD pattern was collected for comparison to the original material and found to correspond well to the pattern of the room temperature sample post-DVS temperature cycle (FIG. 6).

[6] = fast speed 300 mm/s, single runs, 21.7° C./38.9% RH

Structure (SMILES): COC[C@@]1(O)CC[C@@]2(C)[C@@H](CC[C@@H]3[C@@H]2CC[C@]2(C)[C@@H](C(=O)Cn4ccnc4)CC[C@@H]32)C1.O=C(O)CC(O)(CC(=O)O)C(=O)O [Compound 1 mono-citrate salt, 3α-Hydroxy-3β-methoxymethyl-21-(1′-imidazolyl)-5α-pregnan-20-one, reference compound]
- gelation ([1]; 0.1 N HCl, 5 mg/mL): rapidly gelled
- gelation during tablet dissolution experiments [1]: significant gelation
- gelation ([1]; water or pH 7.4 buffer): did not gel
- classification of compaction properties ([2]; from slow speed yield pressure): moderately brittle/ductile compaction properties
- yield pressure, fast press speed [2]: 109 MPa

Structure (SMILES): COC[C@@]1(O)CC[C@@]2(C)[C@@H](CC[C@@H]3[C@@H]2CC[C@]2(C)[C@@H](C(=O)Cn4ccnc4)CC[C@@H]32)C1 [Compound 1 hemi-citrate salt, 3α-Hydroxy-3β-methoxymethyl-21-(1′-imidazolyl)-5α-pregnan-20-one]
- degradation product (C17-epimer) generated [3]: less degradation product
- release of Compound 1 over time ([4]; acidified formulation, initial and open dish at 40° C./75% RH for 2 weeks, 1 month or 2 months): greater than the release of Compound 1 from the same acidified formulation of the Compound 1 mono-citrate salt
- susceptibility to dissolution slow-down of the tablet ([4]; tablet, versus mono-citrate salt): less susceptible than the Compound 1 mono-citrate salt to dissolution slow-down
- gelation ([1]; any of the aqueous media (0.1 N HCl, water, pH 7.4 buffer), concentrations up to 10 mg/mL): did not gel
- gelation during tablet dissolution experiments [1]: not prone to gelation
- classification of compaction properties [2]: soft ductile compaction properties
- yield pressure, fast press speed [2]: 84 MPa

Structure (SMILES): COC[C@@]1(O)CC[C@@]2(C)[C@@H](CC[C@@H]3[C@@H]2CC[C@]2(C)[C@@H](C(=O)Cn4ccnc4)CC[C@@H]32)C1 [Compound 1, 3α-Hydroxy-3β-methoxymethyl-21-(1′-imidazolyl)-5α-pregnan-20-one]
- gelation ([1]; 0.1 N HCl, concentrations as low as 1 mg/mL): rapidly gelled
- gelation ([1]; water or pH 7.4 buffer): did not gel

Structure (SMILES): COC[C@@]1(O)CC[C@@]2(C)[C@@H](CC[C@@H]3[C@@H]2CC[C@]2(C)[C@@H](C(=O)Cn4ccnc4)CC[C@@H]32)C1.O=C(O)CC(O)(CC(=O)O)C(=O)O [Compound 1 mono-citrate salt Form A]
- Compact observations [2, 6]: Laminated
- Ejection Force [2, 6]: 0.740 kN
- yield pressure, slow speed [2]: 84 MPa
- Compact observations ([2]; slow speed 0.1 mm/s, single runs, 21.6° C./37.1% RH): Ok

Structure (SMILES): COC[C@@]1(O)CC[C@@]2(C)[C@@H](CC[C@@H]3[C@@H]2CC[C@]2(C)[C@@H](C(=O)Cn4ccnc4)CC[C@@H]32)C1 [Compound 1 hemi-citrate salt Form I, 3α-Hydroxy-3β-methoxymethyl-21-(1′-imidazolyl)-5α-pregnan-20-one]
- hygroscopicity [5]: slightly hygroscopic
- reversibility of water loss ([5]; 40° C.): fully reversible
- total loss ([5]; 40° C.): 5.4%
- water absorption from 20% to 80% RH ([5]; 40° C.): 1.8%
- water lost between 95% and 20% RH ([5]; 40° C.): 2.2%
- water lost from 20% to 0% RH ([5]; 40° C.): 3.2%
- reversibility of water loss ([5]; room temperature): fully reversible
- total loss across the entire cycle ([5]; room temperature): 4.3%
- water uptake between 20% and 80% RH ([5]; room temperature): 1.2%
- weight loss between 20% and 0% RH ([5]; room temperature): 2.9%
- weight loss between 95% and 20% RH ([5]; room temperature): 1.5%
- Strain rate sensitivity (SRS) ([2]; fast versus slow speed yield pressure): 21.4%
- yield pressure, slow speed [2]: 69 MPa
